Reference: US20090298786A1, “METHODS OF TREATING VIRAL INFECTIONS WITH ANTHRACYCLINE ANTIBIOTICS” (priority 2007, published 2009)
Read-outs that look alike come from different tables or passages of the source.

Biological target: T1, HCV helicase (helicase domain of NS3 protein) (UniProt P27958)
T1 construct: The helicase domain of NS3 protein was expressed in a baculovirus system in HF insect cell line; fused on or other part: Histidine tag, inferred from the Talon cobalt column purification ('histidine repetitions')
T1 sequence (P27958 1027-1657): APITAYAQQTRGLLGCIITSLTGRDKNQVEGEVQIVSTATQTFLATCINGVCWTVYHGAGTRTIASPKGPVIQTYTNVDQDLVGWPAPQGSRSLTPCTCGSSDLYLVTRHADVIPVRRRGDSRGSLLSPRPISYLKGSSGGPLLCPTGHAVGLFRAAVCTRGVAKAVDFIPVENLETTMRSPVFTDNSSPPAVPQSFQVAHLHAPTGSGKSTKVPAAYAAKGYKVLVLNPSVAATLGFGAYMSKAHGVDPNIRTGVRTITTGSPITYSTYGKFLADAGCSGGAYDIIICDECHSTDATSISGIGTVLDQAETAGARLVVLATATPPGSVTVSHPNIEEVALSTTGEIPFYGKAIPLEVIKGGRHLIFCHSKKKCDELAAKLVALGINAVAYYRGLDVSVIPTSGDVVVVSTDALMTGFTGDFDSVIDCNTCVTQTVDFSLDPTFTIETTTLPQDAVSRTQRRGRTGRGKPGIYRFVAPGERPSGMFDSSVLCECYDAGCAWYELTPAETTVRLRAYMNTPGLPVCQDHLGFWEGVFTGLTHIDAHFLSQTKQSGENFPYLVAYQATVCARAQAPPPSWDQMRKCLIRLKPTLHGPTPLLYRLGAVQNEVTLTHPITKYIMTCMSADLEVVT
Assay: Fluorometric (FRET) antihelicase activity assay
Format: biochemical, hepatitis C virus (HCV)
Conditions: concentration inhibiting 50% of helicase activity, 10 nM enzyme pre-incubated 15 min with derivative, unwinding at 30° C. for 60 min
Text: A reaction takes place on a 96- or 384-well microtitration plate and a course of the reaction is observed in real time.
The helicase domain of NS3 protein was expressed in a baculovirus system in HF insect cell line.
In this assay, FAM fluorescence is quenched by fluorescence energy transfer (FRET) to the BHQ molecule, while unwinding of double-stranded DNA structure leads to decrease of FRET phenomenon and increase of FAM fluorescence signal. The assay allows for examining a large number of samples, i.e., different helicase inhibitors at various concentrations and with many repetitions, in standardized conditions. The reaction is conducted in a microtitration plate. The reaction process is observed in real time.
The enzyme (10 nM) was pre-incubated with the tested derivatives dissolved in DMSO (0.005 to 20 μM concentration) without ATP for 15 min at room temperature. The reaction of DNA unwinding was started by addition of ATP and was carried out at 30° C. for 60 min in a Synergy HTi (Biotek) fluorometer. […] Fluorescence was measured every 2 mins.
The enzyme activity was calculated as the initial reaction velocity from the linear part of reaction curve (fluorescence growth as a function of time) using a linear regression method. Inhibition was calculated as comparison of activity of the helicase incubated with inhibitor to activity of the helicase incubated without inhibitor, but with a proper concentration of DMSO, expressed in percent.

| SMILES | IC50 (read-out: IC50) | IC50 |
| --- | --- | --- |
| COc1cccc2c1C(=O)c1c(O)c3c(c(O)c1C2=O)CC(O)(C(C)=O)CC3OC1CC(N=CN2CCCC2)C(O)C(C)O1 (stereo not shown) [Derivative 69] | 1.08 µM | – |
| COc1cccc2c1C(=O)c1c(O)c3c(c(O)c1C2=O)CC(O)(C(=O)CO)CC3OC1CC(N=C(C)N2CCN(C)CC2)C(O)C(C)O1 (stereo not shown) [Derivative 131] | 0.13 µM | – |
| COc1cccc2c1C(=O)c1c(O)c3c(c(O)c1C2=O)CC(O)(C(C)=O)CC3OC1CC(N=CN2CCCC2)C(O)C(C)O1 (stereo not shown) [Derivative 1] | 1.84 µM | – |
| COc1cccc2c1C(=O)c1c(O)c3c(c(O)c1C2=O)CC(O)(C(C)=O)CC3OC1CC(N=CN2CCOCC2)C(O)C(C)O1 (stereo not shown) [Derivative 71] | 3.13 µM | – |
| CCCCN(C=NC1CC(OC2CC(O)(C(C)=O)Cc3c(O)c4c(c(O)c32)C(=O)c2c(OC)cccc2C4=O)OC(C)C1O)CCCC (stereo not shown) [Derivative 84] | 2.05 µM | – |
| CCCN(CCC)C(C)=NC1CC(OC2CC(O)(C(C)=O)Cc3c(O)c4c(c(O)c32)C(=O)c2c(OC)cccc2C4=O)OC(C)C1O (stereo not shown) [Derivative 100] | 1.9 µM | – |
| COc1cccc2c1C(=O)c1c(O)c3c(c(O)c1C2=O)CC(O)(C(C)=O)CC3OC1CC(N=C(C)N2CCCCC2)C(O)C(C)O1 (stereo not shown) [Derivative 22] | 0.7 µM | – |
| COc1cccc2c1C(=O)c1c(O)c3c(c(O)c1C2=O)CC(O)(C(=O)CO)CC3OC1CC(N=CN(C)C(C)c2ccccc2)C(O)C(C)O1 (stereo not shown) [Derivative 122] | 2.53 µM | – |
| COc1cccc2c1C(=O)c1c(O)c3c(c(O)c1C2=O)CC(O)(C(C)=O)CC3OC1CC(N=C(C)N2CCCC2)C(O)C(C)O1 (stereo not shown) [Derivative 18] | 0.41 µM | – |
| COc1cccc2c1C(=O)c1c(O)c3c(c(O)c1C2=O)CC(O)(C(C)=O)CC3OC1CC(N=CN2CCN(C)CC2)C(O)C(C)O1 (stereo not shown) [Derivative 77] | 0.78 ± 0.18 µM | – |
| COc1cccc2c1C(=O)c1c(O)c3c(c(O)c1C2=O)CC(O)(C(C)=O)CC3OC1CC(N=C(C)N2CCOCC2)C(O)C(C)O1 (stereo not shown) [Derivative 89] | 0.05 µM | – |
| COc1cccc2c1C(=O)c1c(O)c3c(c(O)c1C2=O)CC(O)(C(=O)CO)CC3OC1CC(N=CN2CCc3ccccc32)C(O)C(C)O1 (stereo not shown) [Derivative 114] | 0.14 µM | – |
| CCN(C=NC1CC(OC2CC(O)(C(C)=O)Cc3c(O)c4c(c(O)c32)C(=O)c2c(OC)cccc2C4=O)OC(C)C1O)CC (stereo not shown) [Derivative 12] | 1.58 µM | – |
| COc1cccc2c1C(=O)c1c(O)c3c(c(O)c1C2=O)CC(O)(C(C)=O)CC3OC1CC(N=CN2CCCCC2)C(O)C(C)O1 (stereo not shown) [Derivative 5] | 3.5 µM | – |
| COc1cccc2c1C(=O)c1c(O)c3c(c(O)c1C2=O)CC(O)(C(=O)CO)CC3OC1CC(N=CN2CCCC2)C(O)C(C)O1 (stereo not shown) [Derivative 35] | 0.55 µM | – |
| COc1cccc2c1C(=O)c1c(O)c3c(c(O)c1C2=O)CC(O)(C(=O)CO)CC3OC1CC(N=CN2CCN(C)CC2)C(O)C(C)O1 (stereo not shown) [Derivative 112] | 1.53 µM | – |
| COc1cccc2c1C(=O)c1c(O)c3c(c(O)c1C2=O)CC(O)(C(C)=O)CC3OC1CC(N=C(C)N2CCN(C)CC2)C(O)C(C)O1 (stereo not shown) [Derivative 25] | 6.25 µM | – |
| COc1cccc2c1C(=O)c1c(O)c3c(c(O)c1C2=O)CC(O)(C(=O)CO)CC3OC1CC(N=CN2CCCCC2)C(O)C(C)O1 (stereo not shown) [Derivative 109] | 0.76 µM | – |
| COc1cccc2c1C(=O)c1c(O)c3c(c(O)c1C2=O)CC(O)(C(=O)CO)CC3OC1CC(N=C(C)N2CCCCC2)C(O)C(C)O1 (stereo not shown) [Derivative 56] | 3.35 µM | – |
| COc1cccc2c1C(=O)c1c(O)c3c(c(O)c1C2=O)CC(O)(C(C)=O)CC3OC1CC(N=CN2CCCCC2)C(O)C(C)O1 (stereo not shown) [Derivative 73] | 2.39 µM | – |
| COc1cccc2c1C(=O)c1c(O)c3c(c(O)c1C2=O)CC(O)(C(C)=O)CC3OC1CC(N=C(C)N2CCCCCC2)C(O)C(C)O1 (stereo not shown) [Derivative 93] | 0.99 µM | – |
| COc1cccc2c1C(=O)c1c(O)c3c(c(O)c1C2=O)CC(O)(C(=O)CO)CC3OC1CC(N=C(C)N2CCCC2)C(O)C(C)O1 (stereo not shown) [Derivative 52] | 0.5 µM | – |
| COc1cccc2c1C(=O)c1c(O)c3c(c(O)c1C2=O)CC(O)(C(C)=O)CC3OC1CC(N=CN2CCN(C)CC2)C(O)C(C)O1 (stereo not shown) [Derivative 76] | 0.76 ± 0.21 µM | 0.77 µM |

| SMILES | IC50 (read-out: IC50) | IC50 |
| --- | --- | --- |
| COc1cccc2c1C(=O)c1c(O)c3c(c(O)c1C2=O)CC(O)(C(C)=O)CC3OC1CC(N=CN2CCN(C)CC2)C(O)C(C)O1 (stereo not shown) [Derivative 8] | 1.96 µM | – |
| COc1cccc2c1C(=O)c1c(O)c3c(c(O)c1C2=O)CC(O)(C(=O)CO)CC3OC1CC(N=CN2CCN(C)CC2)C(O)C(C)O1 (stereo not shown) [Derivative 42] | 0.98 µM | – |
| CCN(CC)C(C)=NC1CC(OC2CC(O)(C(C)=O)Cc3c(O)c4c(c(O)c32)C(=O)c2c(OC)cccc2C4=O)OC(C)C1O (stereo not shown) [Derivative 98] | 0.18 µM | – |
| CCN(C=NC1CC(OC2CC(O)(C(=O)CO)Cc3c(O)c4c(c(O)c32)C(=O)c2c(OC)cccc2C4=O)OC(C)C1O)CC (stereo not shown) [Derivative 116] | 2.17 µM | – |
| COc1cccc2c1C(=O)c1c(O)c3c(c(O)c1C2=O)CC(O)(C(=O)CO)CC3OC1CC(N=C(C)N2CCCC2)C(O)C(C)O1 (stereo not shown) [Derivative 123] | 0.31 µM | – |
| COc1cccc2c1C(=O)c1c(O)c3c(c(O)c1C2=O)CC(O)(C(C)=O)CC3OC1CC(N=CN2CCOCC2)C(O)C(C)O1 (stereo not shown) [Derivative 3] | 3.17 µM | – |
| COc1cccc2c1C(=O)c1c(O)c3c(c(O)c1C2=O)CC(O)(C(=O)CO)CC3OC1CC(N=C(C)N2CCCCC2)C(O)C(C)O1 (stereo not shown) [Derivative 127] | 0.22 µM | – |
| COc1cccc2c1C(=O)c1c(O)c3c(c(O)c1C2=O)CC(O)(C(=O)CO)CC3OC1CC(N=CN2CCCCC2)C(O)C(C)O1 (stereo not shown) [Derivative 39] | 2.84 µM | – |
| CCN(C=NC1CC(OC2CC(O)(C(=O)CO)Cc3c(O)c4c(c(O)c32)C(=O)c2c(OC)cccc2C4=O)OC(C)C1O)CC (stereo not shown) [Derivative 46] | 1.32 µM | – |
| COc1cccc2c1C(=O)c1c(O)c3c(c(O)c1C2=O)CC(O)(C(=O)CO)CC3OC1CC(N=CN2CCCCCC2)C(O)C(C)O1 (stereo not shown) [Derivative 41] | 1.61 µM | – |
| COc1cccc2c1C(=O)c1c(O)c3c(c(O)c1C2=O)CC(O)(C(C)=O)CC3OC1CC(N=C(C)N2CCCCC2)C(O)C(C)O1 (stereo not shown) [Derivative 91] | 0.03 µM | – |
| COc1cccc2c1C(=O)c1c(O)c3c(c(O)c1C2=O)CC(O)(C(=O)CO)CC3OC1CC(N=CN2CCCCCC2)C(O)C(C)O1 (stereo not shown) [Derivative 111] | 1.72 µM | – |
| COc1cccc2c1C(=O)c1c(O)c3c(c(O)c1C2=O)CC(O)(C(C)=O)CC3OC1CC(N=CN2CCCCCC2)C(O)C(C)O1 (stereo not shown) [Derivative 7] | 1.33 µM | – |
| CCN(C=NC1CC(OC2CC(O)(C(C)=O)Cc3c(O)c4c(c(O)c32)C(=O)c2c(OC)cccc2C4=O)OC(C)C1O)CC (stereo not shown) [Derivative 80] | 0.3 µM | – |
| COc1cccc2c1C(=O)c1c(O)c3c(c(O)c1C2=O)CC(O)(C(=O)CO)CC3OC1CC(N=CN2CCOCC2)C(O)C(C)O1 (stereo not shown) [Derivative 107] | 0.97 µM | – |
| COc1cccc2c1C(=O)c1c(O)c3c(c(O)c1C2=O)CC(O)(C(C)=O)CC3OC1CC(N=CN2CCc3ccccc32)C(O)C(C)O1 (stereo not shown) [Derivative 78] | 0.45 µM | – |
| COc1cccc2c1C(=O)c1c(O)c3c(c(O)c1C2=O)CC(O)(C(C)=O)CC3OC1CC(N=C(C)N2CCN(C)CC2)C(O)C(C)O1 (stereo not shown) [Derivative 95] | 0.09 ± 0.01 µM | – |
| COc1cccc2c1C(=O)c1c(O)c3c(c(O)c1C2=O)CC(O)(C(C)=O)CC3OC1CC(N=C(C)N2CCc3ccccc32)C(O)C(C)O1 (stereo not shown) [Derivative 27] | 11.3 µM | – |
| COc1cccc2c1C(=O)c1c(O)c3c(c(O)c1C2=O)CC(O)(C(=O)CO)CC3OC1CC(N=C(C)N2CCN(C)CC2)C(O)C(C)O1 (stereo not shown) [Derivative 59] | 0.42 µM | – |
| COc1cccc2c1C(=O)c1c(O)c3c(c(O)c1C2=O)CC(O)(C(=O)CO)CC3OC1CC(N=CN2CCOCC2)C(O)C(C)O1 (stereo not shown) [Derivative 37] | 2.12 µM | – |
| CCN(CC)C(C)=NC1CC(OC2CC(O)(C(=O)CO)Cc3c(O)c4c(c(O)c32)C(=O)c2c(OC)cccc2C4=O)OC(C)C1O (stereo not shown) [Derivative 135] | 1.24 µM | – |
| CCCN(C=NC1CC(OC2CC(O)(C(=O)CO)Cc3c(O)c4c(c(O)c32)C(=O)c2c(OC)cccc2C4=O)OC(C)C1O)CCC (stereo not shown) [Derivative 118] | 2.21 µM | – |
